This is an account of results in patent publication US10155751B2, “Pyrazolyl-substituted heteroaryls and their use as medicaments” (Boehringer Ingelheim International GmbH, priority 2015, dated 2018).

Read-outs that look alike come from different tables or passages of the source.

The target in this assay is Recombinant human SYK (amino acids 342-635), GST-SYK kinase fusion protein (Homo sapiens (Human), UniProt P43405). Put plainly: SYK kinase inhibition test (Kinase Glo luminescence). It counts as biochemical. Here is the method: The catalytic activity of the GST-SYK kinase fusion protein was determined using the Kinase Glo® Luminescence Kinase test (Promega; V6712). In this homogeneous test the amount of ATP remaining after the kinase reaction is quantified by a luciferin-luciferase reaction using luminescence. The luminescence signal obtained correlates with the amount of ATP still present and thus correlates inversely with the activity of the kinase.
The test compounds were dissolved in 100% DMSO at a concentration of 10 mM and diluted in DMSO to a concentration of 1 mM. Serial Dilution is done in 100% DMSO. All further dilutions of the substances were carried out with test buffer (25 mM HEPES pH7.5; 25 mM MgCl2; 5 mM MnCl2; 50 mM KCl; 0.2% HSA; 0.01% CHAPS; 100 μM Na3VO4; 0.5 mM DTT). Dilution steps and concentration range were adapted according to need. 7 μl aliquots of these dilutions were transferred into a 384-well Optiplate (Perkin Elmer, #6007290). GST-SYK was diluted to 12 nM in the test buffer and 5 μl of this dilution were used in the kinase test (final concentration of SYK=4 nM in a total volume of 15 μl). After 15 minutes incubation at room temperature 3 μl of a mixture of 750 nM ATP and 100 μg/ml poly (L-Glutamic acid L-Tyrosine 4:1), Fluka #81357) in test buffer were added to each well and the incubation was continued for a further 60 minutes at room temperature.
Positive controls are the reaction mixtures that contain no test substance; negative controls (blanks) are reaction mixtures that contain no kinase.
After 60 minutes, 10 μl Kinase-Glo® solution (Promega, Cat. # V6712) (heated to room temperature) were added to each well and incubation was continued for a further 15 minutes. The plates were read in Envision Luminescence Reader (Perkin-Elmer).
The output file of the reader is a csv file that contains the well number and measured relative light units (RLU). For data evaluation and calculation, the measurement of the negative control was set as 100% ctrl and the measurement of the positive control was set as 0% ctrl. Based on this values the % value for the measurement of each substance concentration was calculated using an Assay Explorer software (Accelrys). Normally, the % ctrl values calculated are between 0% and 100% values but may also occur outside these limits in individual cases based on variability or compound characteristics. The IC50-values were calculated from the % ctrl values using Assay Explorer software. Calculation: [y=(a−d)/(1+(x/c)^b)+d] a=low value, d=high value; x=conc M; c=IC50 M; b=hill; y=% ctrl.
Satisfying SYK inhibitory capacities are represented by an IC50(SYK)-Value measured by this assay of <10 nMol.
(In general: Kinase-Glo reads ATP consumption through a luciferase reaction.)

[1] abbreviates: read-out: SYK inhibition IC50-value (chapter 5.1).
Setting [2] is: read-out: IC50(SYK) in SYK-inhibition assay.

As to `C[C@@H](Oc1cc(-c2cnn(C3CCC(F)(F)C3)c2)cc2nn(C)c(F)c12)[C@H]1CNC(=O)C1` (stereo partly shown) [Example 7], the IC50 under setting [1] was 1.3 nM.

On to `Cc1c2c(O[C@H](C)[C@H]3CNC(=O)C3)cc(-c3cnn([C@@H]4CCOC(C)(C)C4)c3)cc2nn1C` [Example 9, (R)-4-((R)-1-{6-[1-((R)-2,2-Dimethyl-tetrahydro-pyran-4-yl)-1H-pyrazol-4-yl]-2,3-dimethyl-2H-indazol-4-yloxy}-ethyl)-pyrrolidin-2-one], for which the IC50 under setting [1] was 1.1 nM.

As for `CC(C)n1cc(-c2cc(O[C@H](C)[C@H]3CNC(=O)C3)c3c(F)n(C)nc3c2)cn1` [Example 2, (R)-4-{(R)-1-[3-Fluoro-6-(1-isopropyl-1H-pyrazol-4-yl)-2-methyl-2H-indazol-4-yloxy]-ethyl}-pyrrolidin-2-one], under setting [1], the IC50 amounted to 1.3 nM.

`C[C@@H](Oc1nc(-c2cnn(C(C)(C)C)c2)cc2ncn(C)c12)[C@H]1CNC(=O)C1` [example 3A.02, on page 196 of WO15017610, reference compound]: the IC50 by setting is: under setting [2], less than 10 nM; under setting [1], 1.9 nM.

Regarding `Cc1c2c(O[C@H](C)[C@H]3CNC(=O)C3)cc(-c3cnn(C(C)(C)C)c3)cc2nn1C` [Example 13, (R)-4-{(R)-1-[6-(1-tert-Butyl-1H-pyrazol-4-yl)-2,3-dimethyl-2H-indazol-4-yloxy]-ethyl}-pyrrolidin-2-one], the IC50 under setting [1] turned out to be 0.9 nM.

In the case of `Cc1c2c(O[C@H](C)[C@H]3CNC(=O)C3)cc(-c3cnn([C@H]4CO[C@@H]5CCCO[C@@H]54)c3)cc2nn1C` [Example 10, 4-(1-{6-[(R)-(3S,3aR,7aR)-1-(Hexahydro-furo[3,2-b]pyran-3-yl)-1H-pyrazol-4-yl]-2,3-dimethyl-2H-indazol-4-yloxy}-ethyl)-pyrrolidin-2-one], the half-inhibitory concentration (IC50) under setting [1] came to 3.3 nM.

Regarding `Cc1c2c(O[C@H](C)[C@H]3CNC(=O)C3)cc(-c3cnn(C4CCC4)c3)cc2nn1C` [Example 21, (R)-4-{(R)-1-[6-(1-Cyclobutyl-1H-pyrazol-4-yl)-2,3-dimethyl-2H-indazol-4-yloxy]-ethyl}-pyrrolidin-2-one], the IC50 under setting [1] was found to be 1.2 nM.

Regarding `Cc1c2c(O[C@H](C)[C@H]3CNC(=O)C3)cc(-c3cnn(CCF)c3)cc2nn1C` [Example 11, (R)-4-((R)-1-{6-[1-(2-Fluoro-ethyl)-1H-pyrazol-4-yl]-2,3-dimethyl-2H-indazol-4-yloxy}-ethyl)-pyrrolidin-2-one], under setting [1], the IC50 turned out to be 1.5 nM.

Consider `C[C@@H](Oc1cc(-c2cnn(CCC(F)(F)F)c2)cc2nn(C)c(F)c12)[C@H]1CNC(=O)C1` [Example 12, (R)-4-((R)-1-{3-Fluoro-2-methyl-6-[1-(3,3,3-trifluoro-propyl)-1H-pyrazol-4-yl]-2H-indazol-4-yloxy}-ethyl)-pyrrolidin-2-one], for which, under setting [1], the IC50 turned out to be 2.9 nM.

Consider `Cc1c2c(O[C@H](C)[C@H]3CNC(=O)C3)cc(-c3cnn(C(C)C)c3)cc2nn1C` [Example 18, (R)-4-{(R)-1-[6-(1-Isopropyl-1H-pyrazol-4-yl)-2,3-dimethyl-2H-indazol-4-yloxy]-ethyl}-pyrrolidin-2-one], for which, under setting [1], the IC50 is 1.1 nM.

In the case of `Cc1c2c(O[C@H](C)[C@H]3CNC(=O)O3)nc(-c3cnn(C(C)(C)C)c3)cc2nn1C` [Example 3, (R)-5-{(R)-1-[6-(1-tert-Butyl-1H-pyrazol-4-yl)-2,3-dimethyl-2H-pyrazolo[4,3-c]pyridin-4-yloxy]-ethyl}-oxazolidin-2-one], the IC50 under setting [1] was determined as 2 nM.

For `Cc1c2c(O[C@H](C)[C@H]3CNC(=O)C3)cc(-c3cnn(C4CC(C)(C)OC4(C)C)c3)cc2nn1C` (stereo partly drawn) [Example 16, (R)-4-((R)-1-{2,3-Dimethyl-6-[1-(2,2,5,5-tetramethyl-tetrahydro-furan-3-yl)-1H-pyrazol-4-yl]2H-indazol-4-yloxy}-ethyl)-pyrrolidin-2-one], the IC50 under setting [1] worked out at 3.1 nM.

For the compound `Cc1c2c(O[C@H](C)[C@H]3CNC(=O)C3)cc(-c3cnn(C4CC4)c3)cc2nn1C` [Example 20, (R)-4-{(R)-1-[6-(1-Cyclopropyl-1H-pyrazol-4-yl)-2,3-dimethyl-2H-indazol-4-yloxy]-ethyl}-pyrrolidin-2-one], the half-maximal inhibitory concentration (IC50) under setting [1] was determined as 2.5 nM.

`C[C@@H](Oc1cc(-c2cnn(C3CC3)c2)cc2nn(C)c(F)c12)[C@H]1CNC(=O)C1` [Example 5, (R)-4-{(R)-1-[6-(1-Cycloprop-yl-1H-pyrazol-4-yl)-3-fluoro-2-methyl-2H-indazol-4-yloxy]-ethyl}-pyrrolidin-2-one]: under setting [1], the 50% inhibitory concentration (IC50) came out at 3.3 nM.

On to `Cc1cnn2cc(-c3cnn(C(C)(C)C)c3)nc(O[C@H](C)[C@H]3CNC(=O)C3)c12` [example 5.20 on page 506 of WO15017610, reference compound], for which the half-inhibitory concentration (IC50) was less than 10 nM under setting [2] and 0.2 nM under setting [1].

Consider `Cc1cc2c(O[C@H](C)[C@H]3CNC(=O)C3)cc(-c3cnn(C(C)(C)C)c3)cn2n1` [example 6.60 on page 587 of WO15017610, reference compound], for which the IC50 under setting [2] was determined as 10.3 nM and the IC50 under setting [1] was found to be 10.3 nM.

Turning to `Cc1c2c(O[C@H](C)[C@H]3CNC(=O)C3)nc(-c3c[nH]nc3C(C)(C)C)cc2nn1C` [Example 4, (R)-4-{(R)-1-[6-(3-tert-Butyl-1H-pyrazol-4-yl)-2,3-dimeth-yl-2H-pyrazolo[4,3-c]pyridin-4-yloxy]-ethyl}-pyrrolidin-2-one], the IC50 under setting [1] came to 2.2 nM.

Turning to `C[C@@H](Oc1cc(-c2cnn(C(C)(C)C)c2)cc2ncn(C)c12)[C@H]1CNC(=O)C1` [example 3B.22 on page 219 of WO15017610, reference compound], the half-inhibitory concentration (IC50) runs as follows: under setting [2], less than 10 nM; under setting [1], 0.8 nM.

Turning to `C[C@@H](Oc1cc(-c2cnn(C3CC(C)(C)OC3(C)C)c2)cc2nn(C)c(F)c12)[C@H]1CNC(=O)C1` (stereo partly drawn) [Example 14, (R)-4-((R)-1-{3-Fluoro-2-methyl-6-[1-(2,2,5,5-tetramethyl-tetrahydro-furan-3-yl)-1H-pyrazol-4-yl]-2H-indazol-4-yloxy}-ethyl)-pyrrolidin-2-one], the 50% inhibitory concentration (IC50) under setting [1] was determined as 3.2 nM.

Take `Cc1c2c(O[C@H](C)[C@H]3CNC(=O)C3)cc(-c3cnn(C(C)(C)C#N)c3)cc2nn1C` [Example 17, 2-(4-{2,3-Dimethyl-4-[(R)-1-((R)-5-oxo-pyrrolidin-3-yl)-ethoxy]-2H-indazol-6-yl}-pyrazol-1-yl)-2-methyl-propionitrile]: the half-inhibitory concentration (IC50) under setting [1] came to 2.9 nM.

For `C[C@@H](Oc1cc(-c2cnn(C3CCC3)c2)cc2nn(C)c(F)c12)[C@H]1CNC(=O)C1` [Example 1, (R)-4-{(R)-1-[6-(1-Cyclobutyl-1H-pyrazol-4-yl)-3-fluoro-2-methyl-2H-indazol-4-yloxy]-ethyl}-pyrrolidin-2-one], the concentration for half-maximal inhibition (IC50) under setting [1] was determined as 1 nM.

Take `Cc1cnn2cc(-c3cnn(C(C)(C)C)c3)cc(O[C@H](C)[C@H]3CNC(=O)C3)c12` [example 6.09 on page 559 of WO15017610, reference compound]: the half-inhibitory concentration (IC50) by setting is: under setting [2], less than 10 nM; under setting [1], 0.1 nM.

Regarding `Cc1c2c(O[C@H](C)[C@H]3CNC(=O)C3)cc(-c3cnn(C4CCC(F)(F)C4)c3)cc2nn1C` (stereo partly drawn) [Example 22, (R)-4-((R)-1-{6-[1-(3,3-Difluoro-cyclopentyl)-1H-pyrazol-4-yl]-2,3-dimethyl-2H-indazol-4-yloxy}-ethyl)-pyrrolidin-2-one], the IC50 under setting [1] is 1.2 nM.

For the compound `C[C@@H](Oc1cc(-c2cnn(CC3CC3)c2)cc2nn(C)c(F)c12)[C@H]1CNC(=O)C1` [Example 6, (R)-4-{(R)-1-[6-(1-Cycloprop-ylmethyl-1H-pyrazol-4-yl)-3-fluoro-2-methyl-2H-indazol-4-yloxy]-ethyl}-pyrrolidin-2-one], under setting [1], the IC50 was 2.6 nM.

On to `Cc1c2c(O[C@H](C)[C@H]3CNC(=O)C3)cc(-c3cnn(CC4CC4)c3)cc2nn1C` [Example 8, (R)-4-{(R)-1-[6-(1-Cyclopropylmethyl-1H-pyrazol-4-yl)-2,3-dimethyl-2H-indazol-4-yloxy]-ethyl}-pyrrolidin-2-one], for which the IC50 under setting [1] was determined as 1.4 nM.

`Cc1c2c(O[C@H](C)[C@H]3CNC(=O)C3)cc(-c3cnn(CC(C)C)c3)cc2nn1C` [Example 19, (R)-4-{(R)-1-[6-(1-Isobutyl-1H-pyrazol-4-yl)-2,3-dimethyl-2H-indazol-4-yloxy]-ethyl}-pyrrolidin-2-one]: under setting [1], the half-inhibitory concentration (IC50) turned out to be 1.8 nM.

One may read the IC50 as the concentration needed to halve the response being measured.
